Results: US9643953B2, “Substituted benzylpyrazoles” (Bayer Intellectual Property GmbH, priority 2011, dated 2017)
pIC50: −log10 of the molar value. Where two headings read alike, the source gives them in different places.

How the values were obtained:
Caco2 cell line = assay: Proliferation assay (Caco2 cell line); settings: Homo sapiens, Caco-2, 96 h, read-out: Biological Assay 2: Proliferation assay (Caco2 cell line) median IC50
Method: (§1) Cultivated tumor cells (cells were ordered from ATCC, except HeLa-MaTu and HeLa-MaTu-ADR, which were ordered from EPO-GmbH, Berlin) were plated at a density of 1000 to 5000 cells/well, depending on the growth rate of the respective cell line, in a 96-well multititer plate in 200 μL of their respective growth medium supplemented 10% fetal calf serum. After 24 hours, the cells of one plate (zero-point plate) were stained with crystal violet (see below), while the medium of the other plates was replaced by fresh culture medium (200 μl), to which the test substances were added in various concentrations (0 μM, as well as in the range of 0.001-10 μM; the final concentration of the solvent dimethyl sulfoxide was 0.5%). The cells were incubated for 4 days in the presence of test substances. Cell proliferation was determined by staining the cells with crystal violet: the cells were fixed by adding 20 μl/measuring point of an 11% glutaric aldehyde solution for 15 minutes at room temperature. After three washing cycles of the fixed cells with water, the plates were dried at room temperature. The cells were stained by adding 100 μl/measuring point of a 0.1% crystal violet solution (pH 3.0). After three washing cycles of the stained cells with water, the plates were dried at room temperature. The dye was dissolved by adding 100 μl/measuring point of a 10% acetic acid solution. Absorption was determined by photometry at a wavelength of 595 nm. The change of cell number, in percent, was calculated by normalization of the measured values to the absorption values of the zero-point plate (=0%) and the absorption of the untreated (0 μm) cells (=100%). The IC50 values were determined by means of a 4 parameter fit.

HeLa-MaTu-ADR cell line = assay: Proliferation assay (HeLa-MaTu-ADR cell line); settings: 96 h, read-out: Biological Assay 2: Proliferation assay (HeLa-MaTu-ADR cell line) median IC50
Method: as §1

H460 cell line = assay: Proliferation assay (H460 cell line); settings: Homo sapiens, NCI-H460, 96 h, read-out: Biological Assay 2: Proliferation assay (H460 cell line) median IC50
Method: as §1

[1] = molecular target: T1, catalytic domain of human Bub1 (amino acids 704-1085) (Homo sapiens, UniProt O43683); assay: Bub1 kinase assay (TR-FRET); assay type: biochemical; settings: ATP 10 μM, peptide substrate 1 μM, 60 min at 22° C.
T1 construct: catalytic domain of human Bub1 (amino acids 704-1085); His6 (N); made in house; host or cells: Hi5 insect cells
T1 sequence (O43683 704-1085): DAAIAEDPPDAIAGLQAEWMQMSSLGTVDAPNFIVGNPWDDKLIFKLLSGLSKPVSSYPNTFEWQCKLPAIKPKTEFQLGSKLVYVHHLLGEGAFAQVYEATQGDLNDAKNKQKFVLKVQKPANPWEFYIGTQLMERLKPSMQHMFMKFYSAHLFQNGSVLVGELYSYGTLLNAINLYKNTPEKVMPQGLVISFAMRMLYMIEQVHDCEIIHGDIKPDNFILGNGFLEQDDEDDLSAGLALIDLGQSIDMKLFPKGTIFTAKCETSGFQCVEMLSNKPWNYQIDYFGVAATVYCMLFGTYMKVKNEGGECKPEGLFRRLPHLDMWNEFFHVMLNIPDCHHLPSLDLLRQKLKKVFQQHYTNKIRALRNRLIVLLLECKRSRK
Method: To this end, 100-fold concentrated compound solutions (in DMSO) were previously prepared by serial dilution (1:3.4) of 2 mM stocks in a clear low volume 384-well source microtiter plate (Greiner Bio-One, Frickenhausen, Germany), from which 50 nl of compounds were transferred into a black low volume test microtiter plate from the same supplier. […] The resulting mixture (5 μl final volume) was incubated at 22° C. during 60 min., and the reaction was stopped by the addition of 5 μl of an aqueous EDTA-solution (50 mM EDTA, in 100 mM HEPES pH 7.5 and 0.2% (w/v) bovine serum albumin) which also contained the TR-FRET detection reagents (0.2 μM streptavidin-XL665 [Cisbio Bioassays, Codolet, France] and 1 nM anti-phosho-Serine antibody [Merck Millipore, cat. #35-001] and 0.4 nM LANCE EU-W1024 labeled anti-mouse IgG antibody [Perkin-Elmer, product no. AD0077, alternatively a Terbium-cryptate-labeled anti-mouse IgG antibody from Cisbio Bioassays can be used]). The stopped reaction mixture was further incubated 1 h at 22° C. in order to allow the formation of complexes between peptides and detection reagents. Subsequently, the amount of product was evaluated by measurement of the resonance energy transfer from the Eu-chelate-antibody complex recognizing the Phosphoserine residue to the streptavidin-XL665 bound to the biotin moiety of the peptide. […] IC50 values were calculated by fitting the normalized inhibition data to a 4-parameter logistic equation (Minimum, Maximum, IC50, Hill; Y=Max+(Min−Max)/(1+(X/IC50)Hill)).

B16F10 cell line = assay: Proliferation assay (B16F10 cell line); settings: Mus musculus, B16-F10, 96 h, read-out: Biological Assay 2: Proliferation assay (B16F10 cell line) median IC50
Method: as §1

DU145 cell line = assay: Proliferation assay (DU145 cell line); settings: Homo sapiens, DU-145, 96 h, read-out: Biological Assay 2: Proliferation assay (DU145 cell line) median IC50
Method: as §1

HeLa cell line = assay: Proliferation assay (HeLa cell line); settings: Homo sapiens, HeLa, 96 h;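 further: crystal violet staining of cell number, absorbance read at 595 nm, compounds tested at 0.001–10 µM, zero-point plate taken as 0% and untreated cells as 100%, four-parameter fit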
Method: as §1

[2] = TR-FRET, read-out: Biological Assay 1: Bub1 kinase assay median IC50
[3] = read-out: Biological Assay 2: Proliferation assay (HeLa cell line) median IC50
[4] = read-out: Biological Assay 2: Proliferation assay (HeLa cell line) median IC50, HeLa cells, 4 days incubation, crystal violet staining
[5] = Biological Assay 1: Bub1 kinase assay median IC50, TR-FRET

Row | pIC50 (HeLa cell line; [3]) | pIC50 [1, 5] | SMILES | pIC50 [1, 2] | other results
1 | 5.44 | 8.10 | CCOc1cc(F)c(Cn2nc(-c3ncc(OCCO)c(Nc4ccncc4)n3)c(C)c2C2CC2)c(F)c1 [Example 2-3-3, 2-({2-[5-cyclopropyl-1-(4-ethoxy-2,6-difluorobenzyl)-4-methyl-1H-pyrazol-3-yl]-4-(pyridin-4-ylamino)pyrimidin-5-yl}oxy)ethanol] | – | –
2 | 5.49 | 8.26 | CCOc1cc(F)c(Cn2nc(-c3ncc(OCS(N)(=O)=O)c(Nc4ccncc4)n3)c(C)c2C2CC2)c(F)c1 [Example 2-3-5, 1-({2-[5-cyclopropyl-1-(4-ethoxy-2,6-difluorobenzyl)-4-methyl-1H-pyrazol-3-yl]-4-(pyridin-4-ylamino)pyrimidin-5-yl}oxy)methanesulfonamide] | – | –
3 | 5.95 | 8.02 | CCOc1cc(F)c(Cn2nc(-c3ncc(OCCCS(C)(=O)=O)c(Nc4ccncc4)n3)c(C)c2C2CC2)c(F)c1 [Example 2-3-10, 2-[5-cyclopropyl-1-(4-ethoxy-2,6-difluorobenzyl)-4-methyl-1H-pyrazol-3-yl]-5-[3-(methylsulfonyl)propoxy]-N-(pyridin-4-yl)pyrimidin-4-amine] | – | pIC50 (Caco2 cell line): 5.85; pIC50 (HeLa-MaTu-ADR cell line): 6.12; pIC50 (H460 cell line): 5.81; pIC50 (B16F10 cell line): 5.93; pIC50 (DU145 cell line): 5.79
4 | < 5.00 | – | COc1cnc(-c2cc(OC)n(Cc3ccccc3F)n2)nc1Nc1ccncc1C(N)=O [Example 2-4-1, 4-({2-[1-(2-fluorobenzyl)-5-methoxy-1H-pyrazol-3-yl]-5-methoxypyrimidin-4-yl}amino)pyridine-3-carboxamide] | 7.38 | –
5 | 5.49 | 7.98 | CCOc1cc(F)c(Cn2nc(-c3ncc(OC)c(Nc4ccncc4C(N)=O)n3)c(C)c2C2CC2)c(F)c1 [Example 2-4-2, 4-({2-[5-cyclopropyl-1-(4-ethoxy-2,6-difluorobenzyl)-4-methyl-1H-pyrazol-3-yl]-5-methoxypyrimidin-4-yl}amino)nicotinamide] | – | –
6 | 5.35 | 8.03 | CCOc1cc(F)c(Cn2nc(-c3nccc(Nc4ccncc4C(N)=O)n3)c(C)c2C2CC2)c(F)c1 [Example 2-4-3, 4-({2-[5-cyclopropyl-1-(4-ethoxy-2,6-difluorobenzyl)-4-methyl-1H-pyrazol-3-yl]pyrimidin-4-yl}amino)nicotinamide] | – | –
7 | < 5.00 | 8.06 | CCOc1cc(F)c(Cn2nc(-c3nccc(Nc4ccncc4C#N)n3)c(C)c2C2CC2)c(F)c1 [Example 2-6-6, 4-({2-[5-cyclopropyl-1-(4-ethoxy-2,6-difluorobenzyl)-4-methyl-1H-pyrazol-3-yl]pyrimidin-4-yl}amino)nicotinonitrile] | – | –
8 | 5.29 | 8.10 | CCOc1cc(F)c(Cn2nc(-c3ncc(OCCS(C)(=O)=O)c(Nc4ccncc4)n3)c(C)c2C2CC2)c(F)c1 [Example 2-9-1, 2-[5-cyclopropyl-1-(4-ethoxy-2,6-difluorobenzyl)-4-methyl-1H-pyrazol-3-yl]-5-[2-(methylsulfonyl)ethoxy]-N-(pyridin-4-yl)pyrimidin-4-amine] | – | –
9 | 5.28 | – | COc1cnc(-c2nn(Cc3c(F)c(F)c(OCC(F)(F)F)c(F)c3F)c(C3CC3)c2C)nc1Nc1ccncc1 [Example 2-10-2, 2-{5-cyclopropyl-4-methyl-1-[2,3,5,6-tetrafluoro-4-(2,2,2-trifluoroethoxy)benzyl]-1H-pyrazol-3-yl}-5-methoxy-N-(pyridin-4-yl)pyrimidin-4-amine] | 7.21 | –

Continued, compound first:

Row | SMILES | pIC50 (HeLa cell line; [3]) | pIC50 [1, 5] | pIC50 [1, 2] | other results
10 | CCOc1cc(F)c(Cn2nc(-c3ncc(OC)c(Nc4ccncc4)n3)c(C)c2C2CC2)c(F)c1 [Example 2-1-12, 2-[5-cyclopropyl-1-(4-ethoxy-2,6-difluorobenzyl)-4-methyl-1H-pyrazol-3-yl]-5-methoxy-N-(pyridin-4-yl)pyrimidin-4-amine] | 5.36 | – | 8.22 | pIC50 (Caco2 cell line): 5.67; pIC50 (HeLa-MaTu-ADR cell line): 5.51; pIC50 (H460 cell line): 5.58; pIC50 (B16F10 cell line): 5.65; pIC50 (DU145 cell line): 5.51
11 | CCOc1cc(F)c(Cn2nc(-c3ncc(O)c(Nc4ccncc4)n3)c(C)c2C2CC2)c(Sc2ccccc2)c1 [Example 2-2-2, 2-{5-cyclopropyl-1-[4-ethoxy-2-fluoro-6-(phenylsulfanyl)benzyl]-4-methyl-1H-pyrazol-3-yl}-4-(pyridin-4-ylamino)pyrimidin-5-ol] | – | – | 7.27 | pIC50 (HeLa cell line; [4]): 5.30
12 | CCOc1cc(F)c(Cn2nc(-c3ncc(OCCN(C)C)c(Nc4ccncc4)n3)c(C)c2C2CC2)c(F)c1 [Example 2-3-1, 2-[5-cyclopropyl-1-(4-ethoxy-2,6-difluorobenzyl)-4-methyl-1H-pyrazol-3-yl]-5-[2-(dimethylamino)ethoxy]-N-(pyridin-4-yl)pyrimidin-4-amine] | 5.46 | 8.13 | – | pIC50 (Caco2 cell line): 5.71; pIC50 (HeLa-MaTu-ADR cell line): 5.90; pIC50 (H460 cell line): 5.84; pIC50 (B16F10 cell line): 6.37; pIC50 (DU145 cell line): 5.49
13 | CCOc1cc(F)c(Cn2nc(-c3ncc(OCC4(CO)COC4)c(Nc4ccncc4)n3)c(C)c2C2CC2)c(F)c1 [Example 2-3-2, {3-[({2-[5-cyclopropyl-1-(4-ethoxy-2,6-difluorobenzyl)-4-methyl-1H-pyrazol-3-yl]-4-(pyridin-4-ylamino)pyrimidin-5-yl}oxy)methyl]oxetan-3-yl}methanol] | 5.22 | 8.28 | – | –
14 | CCOc1cc(F)c(Cn2nc(-c3ncc(OCCSC)c(Nc4ccncc4)n3)c(C)c2C2CC2)c(F)c1 [Example 2-3-4, 2-[5-cyclopropyl-1-(4-ethoxy-2,6-difluorobenzyl)-4-methyl-1H-pyrazol-3-yl]-5-[2-(methylsulfanyl)ethoxy]-N-(pyridin-4-yl)pyrimidin-4-amine] | 5.25 | 7.97 | – | –
15 | CCOc1cc(F)c(Cn2nc(-c3ncc(OCCCSC)c(Nc4ccncc4)n3)c(C)c2C2CC2)c(F)c1 [Example 2-3-8, 2-[5-cyclopropyl-1-(4-ethoxy-2,6-difluorobenzyl)-4-methyl-1H-pyrazol-3-yl]-5-[3-(methylsulfanyl)propoxy]-N-(pyridin-4-yl)pyrimidin-4-amine] | 5.53 | 7.86 | – | –
16 | CCOc1cc(F)c(Cn2nc(-c3ncc(OCC4(CO)COC4)c(Nc4ccncc4)n3)c(C)c2C2CC2)c(Sc2ccccc2)c1 [Example 2-3-9, [3-({[2-{5-cyclopropyl-1-[4-ethoxy-2-fluoro-6-(phenylsulfanyl)benzyl]-4-methyl-1H-pyrazol-3-yl}-4-(pyridin-4-ylamino)pyrimidin-5-yl]oxy}methyl)oxetan-3-yl]-methanol] | – | – | 6.60 | pIC50 (HeLa cell line; [4]): 5.19
17 | CCOc1cc(F)c(Cn2nc(-c3ncc(OCCC[S+](C)[O-])c(Nc4ccncc4)n3)c(C)c2C2CC2)c(F)c1 (stereo not shown) [Example 2-8-4, 2-[5-cyclopropyl-1-(4-ethoxy-2,6-difluorobenzyl)-4-methyl-1H-pyrazol-3-yl]-5-[3-(methylsulfinyl)propoxy]-N-(pyridin-4-yl)pyrimidin-4-amine] | – | – | 8.10 | pIC50 (HeLa cell line; [4]): 5.37
